According to patent US4713384A, “Selective method for blocking 5HT2 receptors” (Eli Lilly and Company, priority 1985, dated 1987):

Legend:
5HT2 receptors [1] = test: pressor response to serotonin in pithed SHR after oral treatment; type: in vivo, spontaneously hypertensive rats (SHR); settings: for Curve Shift Relative to trans: pithed SHR
Method: (§1) SHR were anesthesized with halothane, femoral arterial and venous catheters were implanted as before and the trachea was cannulated. Each rat was pithed by passing a steel rod through the right orbit and down the entire length of the spinal column. The steel rod remained in place for the duration of the experiment. Immediately after pithing, the rats were ventilated with room air. An equilibration period of 15 minutes was observed prior to control measurements and administration of drugs or vehicle p.o. Increasing doses of serotonin or the alpha2 agonist clonidine were injected i.v. one or six hours after oral treatment with the […]. The response was recorded and the blood pressure allowed to recover to control levels after serotonin. Cumulative dose-response curves to clonidine were determined. The test drug solution was prepared fresh daily. Tables 5 and 6 give the results of these determinations at a dose level of 0.1 mg/kg.
^a Conscious spontaneously hypertensive rats (SHR) were treated orall
1 hour before anesthesia, pithing and determination of pressordose
response curves to multiple doses of 5HT iv (n= 4-10/group).
^b Dose of 5HT required to increase mean arterial blood pressure by 5
6 hours before anesthesia, pithing and determination of pressordose
response curves to multiple doses of 5HT iv (n = 4-10/group).

α1 receptors = molecular target: T1, α1 receptors (Rattus norvegicus, UniProt P23944); test: alpha1 antagonism in rat aorta (norepinephrine); type: biochemical
T1 construct: their external jugular veins and thoracic aortas dissected free of connective tissue; from tissue; host or cells: thoracic aorta of male Wistar rats
T1 sequence (P23944 1-561): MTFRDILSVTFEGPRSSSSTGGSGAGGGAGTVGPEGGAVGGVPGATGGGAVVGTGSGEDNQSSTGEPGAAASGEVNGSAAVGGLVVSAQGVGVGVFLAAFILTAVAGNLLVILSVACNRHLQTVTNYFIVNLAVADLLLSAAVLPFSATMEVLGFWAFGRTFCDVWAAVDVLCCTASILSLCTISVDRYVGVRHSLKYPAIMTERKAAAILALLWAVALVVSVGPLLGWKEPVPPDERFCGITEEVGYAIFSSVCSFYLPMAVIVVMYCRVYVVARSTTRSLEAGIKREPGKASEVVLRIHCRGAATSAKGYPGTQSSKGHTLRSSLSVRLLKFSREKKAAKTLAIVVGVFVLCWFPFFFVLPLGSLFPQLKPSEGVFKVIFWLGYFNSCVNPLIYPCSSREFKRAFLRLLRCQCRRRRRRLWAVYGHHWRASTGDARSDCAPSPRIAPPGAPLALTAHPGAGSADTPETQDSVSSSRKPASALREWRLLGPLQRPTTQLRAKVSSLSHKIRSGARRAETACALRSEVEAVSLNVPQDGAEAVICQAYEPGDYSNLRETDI
Method: (§2) An initial optimum resting force of 1 and 4 g was applied to the jugular vein and aorta, respectively. […] Exp. Ther., 205, 400 (1978) and Cohen, Colbert and Wittenauer, Drug Dev. Res., 5 513 (1985) for descriptions of the procedures employed. Alpha receptor antagonist activity was evaluated in the aorta (α1) or guinea pig ileum (α2).
(§3) The -log KB values obtained for 4-hydroxycyclohexyl 1-isopropyl-9,10-dihydrolysergate, isomer mixture (racemate) and pure isomers (cis and trans referring to stereochemistry of the hydroxycyclohexyl group) plus standard error against 5HT2 receptors are given below in Table 1.
(§4) The in vitro rat aorta preparation described above was used for α1 -receptors and the guinea pig ileum for α2 -receptors. ED50 (median effective dose) for norepinephrine was determined in the presence of a 10-5 molar dose of the test compound and this ED50 compared to a control ED50.

α2 receptors = molecular target: T2, α2 receptors (Cavia porcellus, UniProt Q60474); test: alpha2 antagonism in guinea pig ileum; type: biochemical
T2 construct: Alpha receptor antagonist activity was evaluated in the aorta (α1) or guinea pig ileum (α2); from tissue; host or cells: guinea pig ileum
T2 sequence (Q60474 1-464): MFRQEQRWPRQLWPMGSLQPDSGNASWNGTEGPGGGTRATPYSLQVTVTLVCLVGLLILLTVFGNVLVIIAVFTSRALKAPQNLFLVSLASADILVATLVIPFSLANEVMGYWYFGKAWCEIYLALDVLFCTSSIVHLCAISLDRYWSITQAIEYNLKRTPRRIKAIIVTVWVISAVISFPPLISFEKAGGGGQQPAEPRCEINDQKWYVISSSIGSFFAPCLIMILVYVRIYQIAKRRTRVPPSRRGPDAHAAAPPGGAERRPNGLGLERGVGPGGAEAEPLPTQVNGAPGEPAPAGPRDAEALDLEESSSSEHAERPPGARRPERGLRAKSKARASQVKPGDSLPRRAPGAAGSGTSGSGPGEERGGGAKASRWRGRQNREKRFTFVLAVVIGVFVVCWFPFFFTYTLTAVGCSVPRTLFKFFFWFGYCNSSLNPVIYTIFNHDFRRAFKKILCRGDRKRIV
Method: as §2, §3, §4

5HT2 receptors [2] = molecular target: T3, 5HT2 receptors (Rattus norvegicus, UniProt P14842); test: antagonism of serotonin contraction in rat external jugular vein (5HT2, apparent dissociation constant); type: biochemical, rat (male Wistar); set-up: their external jugular veins and thoracic aortas dissected free of connective tissue; from tissue; host or cells: external jugular vein of male Wistar rats; settings: antagonist incubated one hour, 37° C., read-out: -log KB (Log Kb ± S.E.), 5HT2 receptors (converted)
T3 sequence (P14842 whole entry): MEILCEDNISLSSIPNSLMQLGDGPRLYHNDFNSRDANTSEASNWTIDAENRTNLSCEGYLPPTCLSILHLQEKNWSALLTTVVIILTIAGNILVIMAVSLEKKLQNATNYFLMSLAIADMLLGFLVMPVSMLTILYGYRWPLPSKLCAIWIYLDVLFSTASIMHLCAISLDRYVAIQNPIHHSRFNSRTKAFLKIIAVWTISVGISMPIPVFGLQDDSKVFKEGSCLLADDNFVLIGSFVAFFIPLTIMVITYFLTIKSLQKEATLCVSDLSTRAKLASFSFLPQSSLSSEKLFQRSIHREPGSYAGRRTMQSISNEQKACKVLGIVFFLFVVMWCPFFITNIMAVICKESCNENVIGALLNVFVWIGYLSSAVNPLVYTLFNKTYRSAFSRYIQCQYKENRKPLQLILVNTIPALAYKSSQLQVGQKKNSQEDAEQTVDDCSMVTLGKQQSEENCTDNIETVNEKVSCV
Method: Compounds according to formula I have an extremely high affinity for 5HT2 receptors, with a much lower affinity for alpha receptors. Ratios of relative dissociation constants for interaction with alpha to 5HT2 receptors are of the order of 200,000-300,000 indicating dramatic selectivity for 5HT2 receptors. The apparent dissociation constants (KB) are a measure of affinity for 5HT2 and alpha receptors and are expressed as the negative logarithm and are determined according to the following protocol.
as §2, §3

dopaminergic = settings: literature; cited from earlier work
5HT receptor = settings: cited from earlier work; for 5HT receptor activity (agonist/antagonist) in words: literature
migraine [3] = settings: clinical trial, Lance I, Table 1; cited from earlier work
5HT2 receptors [4] = molecular target: T3, 5HT2 receptors; test: biochemical
Source text: The procedures employed are those set forth in Cohen, Colbert and Wittenauer (loc. cit.) for other tissues.

5HT1 receptors = test: Rat Cortical Membrane Binding, 5HT1; settings: rat cortical membranes; read-out: Rat Cortical Membrane Binding IC50, 5HT
Muscarinic = molecular target: T4, Muscarinic (Cavia porcellus, UniProt H0W1Z3); test: carbamyl choline (muscarinic) contraction in guinea pig trachea; type: biochemical
T4 construct: histamine or carbamyl choline (muscarinic) contraction in guinea pig trachea; from tissue; host or cells: guinea pig trachea
T4 sequence (H0W1Z3 1-590): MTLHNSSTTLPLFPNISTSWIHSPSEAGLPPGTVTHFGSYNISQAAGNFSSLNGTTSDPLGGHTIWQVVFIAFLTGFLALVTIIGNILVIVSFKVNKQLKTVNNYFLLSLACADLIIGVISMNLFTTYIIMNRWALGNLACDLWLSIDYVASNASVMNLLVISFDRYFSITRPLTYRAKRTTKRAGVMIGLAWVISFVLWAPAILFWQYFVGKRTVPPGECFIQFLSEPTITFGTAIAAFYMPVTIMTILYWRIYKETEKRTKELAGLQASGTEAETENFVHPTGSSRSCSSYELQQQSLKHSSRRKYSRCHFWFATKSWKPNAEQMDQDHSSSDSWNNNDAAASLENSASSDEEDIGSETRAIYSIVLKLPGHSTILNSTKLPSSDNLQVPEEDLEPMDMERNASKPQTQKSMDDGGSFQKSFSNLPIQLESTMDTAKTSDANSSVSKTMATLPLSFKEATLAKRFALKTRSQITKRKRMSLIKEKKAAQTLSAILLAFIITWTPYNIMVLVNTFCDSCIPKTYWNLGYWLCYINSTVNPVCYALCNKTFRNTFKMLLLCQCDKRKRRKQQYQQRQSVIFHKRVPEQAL
Source text: (§5) The compounds of this invention also lack demonstrable effects against histamine or carbamyl choline (muscarinic) contraction in guinea pig trachea, using standard procedures.

Histamine = molecular target: T5, Histamine (Cavia porcellus, UniProt P31389); test: histamine contraction in guinea pig trachea; type: biochemical
T5 construct: histamine or carbamyl choline (muscarinic) contraction in guinea pig trachea; from tissue; host or cells: guinea pig trachea
T5 sequence (P31389 whole entry): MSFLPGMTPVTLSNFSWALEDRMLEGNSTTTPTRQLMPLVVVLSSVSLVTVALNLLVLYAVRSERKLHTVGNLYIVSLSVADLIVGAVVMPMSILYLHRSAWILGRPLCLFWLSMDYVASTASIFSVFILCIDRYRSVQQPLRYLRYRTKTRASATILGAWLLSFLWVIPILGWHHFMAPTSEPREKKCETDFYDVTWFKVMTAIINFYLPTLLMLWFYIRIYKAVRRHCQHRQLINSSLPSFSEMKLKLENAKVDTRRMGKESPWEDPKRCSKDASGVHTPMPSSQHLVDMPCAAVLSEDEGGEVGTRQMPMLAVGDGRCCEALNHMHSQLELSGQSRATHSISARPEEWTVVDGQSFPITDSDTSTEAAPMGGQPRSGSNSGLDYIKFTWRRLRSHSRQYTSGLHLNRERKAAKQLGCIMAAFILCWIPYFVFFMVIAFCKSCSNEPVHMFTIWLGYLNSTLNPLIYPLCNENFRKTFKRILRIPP
Source text: as §5

[5] = blood pressure and heart rate in spontaneously hypertensive rats; type: in vivo; settings: SHR, oral, 10 mg/kg
alpha2 receptors = test: alpha2 antagonism (clonidine pressor response) in pithed SHR after oral treatment; type: in vivo, spontaneously hypertensive rats (SHR)
Method: as §1, with “Tables 5 and 6 give the results of these determinations at a dose level of 0.1 mg/kg.” left out

alpha-receptors = settings: literature; cited from earlier work
5HT2 = settings: Awouters; cited from earlier work
[6] = literature; cited from earlier work
[7] = tested on: receptors other than 5HT2 receptors, particularly peripheral alpha2 receptors; settings: cited from earlier work
[8] = tested on: vascular histaminergic receptors; settings: Cohen I; cited from earlier work
[9] = tested on: vascular alpha adrenergic receptors; settings: Cohen I; cited from earlier work
[10] = tested on: vascular dopaminergic receptors; settings: Cohen I; cited from earlier work
5HT2 receptors [11] = settings: Cohen I; cited from earlier work
migraine [12] = settings: Sulman; cited from earlier work
[13] = Berde; cited from earlier work
cranial arteries = settings: with noradrenaline, migraine attack, Aellig; cited from earlier work

With `CC(C)n1cc2c3c(cccc31)[C@H]1C[C@@H](C(=O)O[C@H]3CC[C@@H](O)CC3)CN(C)[C@@H]1C2` (mixture of isomers) [cis, cis-(±)-4-hydroxycyclohexyl 1-isopropyl-9,10-dihydrolysergate] the curve shift (5HT2 receptors [1]; 0.3 mg/kg po) was 6.7, the “dose of 5HT required to increase mean arterial BP by 50 mmHg” value (5HT2 receptors [1]; 0.3 mg/kg po) was 1800 and the “Curve Shift Relative to trans” value (5HT2 receptors [1]; one hour after oral 0.1 mg/kg) was 11.6. The “Curve Shift Relative to trans” value (5HT2 receptors [1]; six hours after oral 0.1 mg/kg) was 24.3, the Kb (α1 receptors) was 4470 nM and the Kb (α2 receptors) was 155 nM. The Kb (5HT2 receptors [2]) was 0.112 nM.
In the case of `C[C@@H](CO)NC(=O)[C@@H]1C=C2c3cccc4[nH]cc(c34)C[C@H]2N(C)C1` [ergonovine], the “dopaminergic activity in words” value (dopaminergic) is given as “weak dopaminergic antagonist” and the “5HT receptor activity (agonist/antagonist) in words” value (5HT receptor) is given as 5HT agonist and selective and fairly potent 5HT antagonist in smooth muscle and highly active 5HT antagonist in the uterus.
In the case of `CCN(CC)C(=O)N[C@H]1C=C2c3cccc4[nH]cc(c34)C[C@H]2N(C)C1` [lysenyl, N-D-6-methylisoergolenyldiethylcarbamide], the “Improvement rate in migraine” value (migraine [3]) is listed as 34%.
With `CC(C)n1cc2c3c(cccc31)[C@H]1C[C@@H](C(=O)O[C@H]3CC[C@H](O)CC3)CN(C)[C@@H]1C2` [trans, trans-4-hydroxycyclohexyl 1-isopropyl-9,10-dihydrolysergate] the “potency of trans isomer relative to cis isomer” value (5HT2 receptors [1]; by extrapolation, po) was 3 X, the IC50 (5HT2 receptors [4]) was 0.7 nM and the Kb (α1 receptors) was 1950 nM. The IC50 (5HT1 receptors) was 390 nM, the Kb (α2 receptors) was 66.1 nM and the Kb (Muscarinic) was over 10000 nM. The Kb (5HT2 receptors [2]) was 0.0955 nM and the Kb (Histamine) was over 10000 nM.
With `CC(C)n1cc2c3c(cccc31)[C@H]1C[C@@H](C(=O)OC3CCC(O)CC3)CN(C)[C@@H]1C2` (mixture of isomers) [mixture, 4-hydroxycyclohexyl 1-isopropyl-9,10-dihydrolysergate] the “Curve Shift Relative to trans” value (5HT2 receptors [1]; one hour after oral 0.1 mg/kg) was 3.6, the “Curve Shift Relative to trans” value (5HT2 receptors [1]; six hours after oral 0.1 mg/kg) was 5.5 and the IC50 (5HT2 receptors [4]) was 3 nM. The Kb (α1 receptors) was 14500 nM, the “effect on blood pressure or heart rate” value [5] was “no effect on blood pressure or heart rate” and the IC50 (5HT1 receptors) was 530 nM. The “alpha2 antagonist activity in pithed rats” value (alpha2 receptors; 100 mg/kg dose level po) was “slight”, the “specificity (5HT2 vs alpha2) in vivo compared with in vitro” value (alpha2 receptors; pithed rats, po) was “greater specificity” and the Kb (α2 receptors) was 117 nM. The Kb (Muscarinic) was over 10000 nM, the Kb (5HT2 receptors [2]) was 0.0661 nM and the Kb (Histamine) was over 10000 nM.
For `CN1CCC(=C2c3ccccc3C=Cc3ccccc32)CC1` [cyproheptadine], the “Improvement rate in migraine” value (migraine [3]) is listed as 43%.
For `CC[C@@H](CO)NC(=O)[C@@H]1C=C2c3cccc4c3c(cn4C)C[C@H]2N(C)C1` [methysergide], the “5HT receptor blockade rating” value (5HT receptor; Berde, most active compound = 1,000) is listed as 1,000, the “5HT receptor activity (agonist/antagonist) in words” value (5HT receptor) is listed as 5HT agonists at low concentrations but antagonistic at higher concentrations and partial 5HT agonist in certain blood vessels and very potent 5HT antagonist in the CNS and the “alpha receptor activity in words” value (alpha-receptors) is listed as “little or no action on alpha-receptors”. For the same molecule, the “Improvement rate in migraine” value (migraine [3]) was 64%, the “5HT2 agonist activity and side effects” value (5HT2) was “responsible for some of the side effects” and the oxytocic action [6] was “no oxytocic action”.
In the case of `CC(O)C(C)OC(=O)[C@@H]1C[C@@H]2c3cccc4c3c(cn4C(C)C)C[C@H]2N(C)C1` (stereo partly drawn) [LY53857, 1-isopropyl-6-methyl-8β-(1-methyl-2-hydroxy)propoxycarbonyl-5R-ergoline], the “effect on receptors other than 5HT2” value [7] is listed as “lack of effect”, the “affinity, vascular histaminergic receptors” value [8] is listed as “minimal affinity” and the “affinity, vascular alpha adrenergic receptors” value [9] is listed as “minimal affinity”. For the same molecule, the “affinity, vascular dopaminergic receptors” value [10] was “minimal affinity” and the “antagonism of vascular contraction to serotonin” value (5HT2 receptors [11]) was “potent antagonist”.
In the case of `CN1CCC(=C2c3ccccc3CCc3sccc32)CC1` [BC105], the “Improvement rate in migraine” value (migraine [3]) is listed as 50%.
In the case of `CN1CCC(=C2c3ccccc3C(O)c3ccccc32)CC1` (stereo not shown) [danitracene], the pharmacological effects (migraine [12]) is listed as “antiserotonin, antihistamine and antidepressive affects”.
In the case of `CN1CCC(CN2c3ccccc3Sc3ccccc32)C1` (stereo not shown) [methdilazine], the “Improvement rate in migraine” value (migraine [3]) is given as 45%.
In the case of `CN1C[C@H](C(=O)N[C@]2(C)O[C@@]3(O)[C@@H]4CCCN4C(=O)[C@H](Cc4ccccc4)N3C2=O)C=C2c3cccc4[nH]cc(c34)C[C@H]21` [ergotamine], the “5HT receptor activity (agonist/antagonist) in words” value (5HT receptor) is listed as 5HT agonists at low concentrations but antagonistic at higher concentrations, the “alpha receptor activity in words” value (alpha-receptors) is listed as “both a partial alpha-agonist and an alpha-antagonist” and the “pressor and emetic activity” value [13] is listed as “most active compound only in pressor and emetic activity”. The “constriction of cranial arteries” value (cranial arteries) was “act together to constrict cranial arteries”.
